SMILES strings stand for the structures. Where a name gives a salt, the structure may show the parent alone.

A word on the IC50: it is the concentration at which inhibition is half-maximal.

The target of this test is ROCK2 (Homo sapiens (Human), UniProt O75116). The test can be described thus: ROCK2 kinase inhibition assay (FITC peptide substrate, LABCHIP 3000 Reader). It is filed as biochemical. As to conditions: 5 μM ATP, 1.5 μM peptide substrate. A digest of the protocol: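 Reaction in 20 mM HEPES pH 7.5, 20 mM MgCl2, 0.015% Brij-35, 4 mM DTT with 5 μM ATP and 1.5 μM FITC-AHA-AKRRRLSSLRA-OH peptide, started with Rho kinase, DMSO <2%. EDTA-stopped; phospho and non-phospho peptide separated by mobility shift. IC50 from dose-response curve fit.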
Chain of ROCK2 (O75116 whole entry, species assumed): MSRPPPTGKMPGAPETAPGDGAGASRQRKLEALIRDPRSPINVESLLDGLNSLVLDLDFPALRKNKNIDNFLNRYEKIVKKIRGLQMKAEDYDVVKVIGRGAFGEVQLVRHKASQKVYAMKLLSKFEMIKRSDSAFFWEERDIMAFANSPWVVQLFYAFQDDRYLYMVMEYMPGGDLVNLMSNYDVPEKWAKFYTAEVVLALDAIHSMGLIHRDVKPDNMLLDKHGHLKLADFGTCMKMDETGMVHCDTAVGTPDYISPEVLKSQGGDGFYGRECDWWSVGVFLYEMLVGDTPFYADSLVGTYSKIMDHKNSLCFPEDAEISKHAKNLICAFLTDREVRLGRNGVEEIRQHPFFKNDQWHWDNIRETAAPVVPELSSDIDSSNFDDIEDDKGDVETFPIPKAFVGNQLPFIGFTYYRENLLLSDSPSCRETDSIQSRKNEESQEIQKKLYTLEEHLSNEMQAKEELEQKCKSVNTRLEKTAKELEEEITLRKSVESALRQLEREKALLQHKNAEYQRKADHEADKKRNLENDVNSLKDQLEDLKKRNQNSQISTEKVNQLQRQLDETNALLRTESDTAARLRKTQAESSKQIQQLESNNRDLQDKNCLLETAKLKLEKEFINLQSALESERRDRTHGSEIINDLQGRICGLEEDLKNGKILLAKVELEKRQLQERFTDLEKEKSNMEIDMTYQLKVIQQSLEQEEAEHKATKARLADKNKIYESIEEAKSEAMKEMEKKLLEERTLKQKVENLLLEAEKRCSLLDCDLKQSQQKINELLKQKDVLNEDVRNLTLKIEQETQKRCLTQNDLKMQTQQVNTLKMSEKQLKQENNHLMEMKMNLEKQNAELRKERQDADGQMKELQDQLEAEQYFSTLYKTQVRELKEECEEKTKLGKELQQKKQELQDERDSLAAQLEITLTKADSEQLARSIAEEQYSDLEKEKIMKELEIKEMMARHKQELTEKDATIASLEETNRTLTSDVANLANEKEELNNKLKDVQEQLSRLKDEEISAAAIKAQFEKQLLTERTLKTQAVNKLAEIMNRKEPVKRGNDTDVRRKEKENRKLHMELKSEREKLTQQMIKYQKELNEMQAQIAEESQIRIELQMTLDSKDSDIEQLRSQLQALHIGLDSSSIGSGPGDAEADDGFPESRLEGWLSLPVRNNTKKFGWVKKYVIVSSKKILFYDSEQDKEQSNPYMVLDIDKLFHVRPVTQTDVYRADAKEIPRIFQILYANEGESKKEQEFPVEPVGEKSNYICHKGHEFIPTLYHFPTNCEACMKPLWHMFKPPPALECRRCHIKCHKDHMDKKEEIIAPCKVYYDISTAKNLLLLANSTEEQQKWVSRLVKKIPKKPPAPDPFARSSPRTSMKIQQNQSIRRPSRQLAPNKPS
In turn, `CCc1nc(N2CC3(CCN(C(=O)CO)CC3)N(Cc3cccc(F)c3C)C2=O)ccc1-c1cn[nH]c1` [Example 181, 3-(6-ethyl-5-(1H-pyrazol-4-yl)pyridin-2-yl)-1-(3-fluoro-2-methylbenzyl)-8-(2-hydroxyacetyl)-1,3,8-triazaspiro[4.5]decan-2-one] returned an IC50 of less than 3 nM.
To `O=C1N(c2ccc(-c3cn[nH]c3)cc2)CC2(CCOCC2)N1Cc1cccc(Cl)c1` [Example 16, 3-(4-(1H-pyrazol-4-yl)phenyl)-1-(3-chlorobenzyl)-8-oxa-1,3-diazaspiro[4.5]decan-2-one] belongs 3 to 30 nM; to `COc1cc(F)ccc1CN1C(=O)N(c2ccc(-c3cn[nH]c3)cc2)CC12CCOCC2` [Example 28, 3-(4-(1H-pyrazol-4-yl)phenyl)-1-(4-fluoro-2-methoxybenzyl)-8-oxa-1,3-diazaspiro[4.5]decan-2-one], 30 to 250 nM; to `COc1cccc(NC2C(=O)N(c3ccc(-c4cn[nH]c4)cc3)CC23CCN(CC(C)(C)O)CC3)c1` (stereo not drawn) [Example 253, 2-(4-(1H-pyrazol-4-yl)phenyl)-8-(2-hydroxy-2-methylpropyl)-4-((3-methoxy-phenyl)amino)-2,8-diazaspiro [4.5]decan-3-one], 250 to 3000 nM.
With `COc1nc(N2CC3(CCN(CC(C)(C)O)CC3)N(Cc3cccc(F)c3C)C2=O)ccc1-c1cn[nH]c1` [Example 167, 1-(3-fluoro-2-methylbenzyl)-8-(2-hydroxy-2-methylpropyl)-3-(6-methoxy-5-(1H-pyrazol-4-yl)pyridin-2-yl)-1,3,8-triazaspiro[4.5]decan-2-one] the figure was less than 3 nM.
To `CCC(CC)CN1CCC2(CC1)CN(c1ccc(-c3cn[nH]c3)cc1)C(=O)N2Cc1cccc(OC)c1` [Example 123, 3-(4-(1H-pyrazol-4-yl)phenyl)-8-(2-ethylbutyl)-1-(3-methoxybenzyl)-1,3,8-triazaspiro[4.5]decan-2-one] belongs less than 3 nM; to `CC(C)CNC(=O)c1cccc(CN2C(=O)N(c3ccc(-c4cn[nH]c4)cc3)CC23CCOCC3)c1` [Example 35, 3-((3-(4-(1H-pyrazol-4-yl)phenyl)-2-oxo-8-oxa-1,3-diazaspiro[4.5]decan-1-yl)methyl)-N-isobutylbenzamide], less than 3 nM; to `COc1cc(F)cc(CN2C(=O)N(c3ccc(-c4cn[nH]c4)cc3)CC23CCN(C(=O)C(C)(C)O)CC3)c1` [Example 190, 3-(4-(1H-pyrazol-4-yl)phenyl)-1-(3-fluoro-5-methoxybenzyl)-8-(2-hydroxy-2-methylpropanoyl)-1,3,8-triazaspiro[4.5] decan-2-one], less than 3 nM.
`CCc1nc(N2CC3(CCN(C(=O)C4(O)CC4)CC3)N(Cc3cccc(OC)c3)C2=O)ccc1-c1cn[nH]c1` [Example 216, 3-(6-ethyl-5-(1H-pyrazol-4-yl)pyridin-2-y)-8-(1-hydroxycyclopropanecarbonyl)-1-(3-methoxybenzyl)-1,3,8-triazaspiro[4.5]decan-2-one] displayed an IC50 of 3 to 30 nM.
To `COc1cc(F)cc(CN2C(=O)N(c3ccc(-c4cn[nH]c4)cc3)CC23CCN(C(=O)C2(C)COC2)CC3)c1` [Example 193, 33-(4-(1H-pyrazol-4-yl)phenyl)-1-(3-fluoro-5-methoxybenzyl)-8-(3-methyloxetane-3-carbonyl)-1,3,8-triazaspiro[4.5]decan-2-one] belongs less than 3 nM; to `CCc1nc(N2CC3(CCN(CCO)CC3)N(Cc3cccc(OC)c3)C2=O)ccc1-c1cn[nH]c1` [Example 150, 3-(6-ethyl-5-(1H-pyrazol-4-yl)pyridin-2-yl)-8-(2-hydroxyethyl)-1-(3-methoxybenzyl)-1,3,8-triazaspiro[4.5]decan-2-one], less than 3 nM.
To `COc1cccc(CN2C(=O)N(c3ncc(-c4cn[nH]c4)c(OC)n3)CC23CCN(CC(C)(C)O)CC3)c1` [Example 163, 8-(2-hydroxy-2-methylpropyl)-3-(4-methoxy-5-(1H-pyrazol-4-yl)pyrimidin-2-yl)-1-(3-methoxybenzyl)-1,3,8-triazaspiro[4.5]decan-2-one] belongs 3 to 30 nM; to `COc1nc(N2CC3(CCN(C(=O)CCN4CCCC4=O)CC3)N(Cc3cccc(F)c3C)C2=O)ccc1-c1cn[nH]c1` [Example 227, 1-(3-fluoro-2-methylbenzyl)-3-(6-methoxy-5-(1H-pyrazol-4-yl)pyridin-2-yl)-8-(3-(2-oxopyrrolidin-1-yl)propanoyl)-1,3,8-triazaspiro[4.5]decan-2-one], less than 3 nM.
With `O=C1N(c2ccc(-c3cn[nH]c3)cc2)CC2(CCOCC2)N1Cc1cccc(F)c1` [Example 13, 3-(4-(1H-pyrazol-4-yl)phenyl)-1-(3-fluorobenzyl)-8-oxa-1,3-diazaspiro[4.5]decan-2-one] the figure was 3 to 30 nM; with `Cc1c(F)cccc1CN1C(=O)N(c2ccc(-c3cn[nH]c3)cc2)CC12CCOCC2` [Example 25, 3-(4-(1H-pyrazol-4-yl)phenyl)-1-(3-fluoro-2-methylbenzyl)-8-oxa-1,3-diazaspiro[4.5]decan-2-one], less than 3 nM.
Regarding `COc1cccc(CN2C(=O)N(c3ccc(-c4cn[nH]c4)cc3)CC23CCNCC3)c1` [Example 57, 3-(4-(1H-pyrazol-4-yl)phenyl)-1-(3-methoxybenzyl)-1,3,8-triazaspiro[4.5]decan-2-one], the IC50 was less than 3 nM.
Turning to `CC(=O)N1CCC2(CC1)CN(c1ccc(-c3cn[nH]c3)cc1)C(=O)N2Cc1cc(F)ccc1C` [Example 83, 3-(4-(1H-pyrazol-4-yl)phenyl)-8-acetyl-1-(5-fluoro-2-methylbenzyl)-1,3,8-triazaspiro[4.5]decan-2-one], the half-inhibitory concentration (IC50) was 3 to 30 nM.
To `O=C1N(c2ccc(-c3cn[nH]c3)cc2)CC2(CCNCC2)N1Cc1cccc(OCC2CC2)c1` [Example 60, 3-(4-(1H-pyrazol-4-yl)phenyl)-1-(3-(cyclopropylmethoxy)benzyl)-1,3,8-triazaspiro[4.5] decan-2-one, TFA] belongs 3 to 30 nM; to `COc1cccc(CN2C(=O)N(c3ccc(-c4cn[nH]c4)c(OC)n3)CC23CCN(C(C)=O)CC3)c1` [Example 85, 8-acetyl-3-(6-methoxy-5-(1H-pyrazol-4-yl)pyridin-2-yl)-1-(3-methoxybenzyl)-1,3,8-triazaspiro[4.5]decan-2-one], less than 3 nM.
Regarding `COCCN1CCC2(CC1)CN(c1ccc(-c3cn[nH]c3)cc1)C(=O)N2Cc1cccc(OC)c1` [Example 142, 3-(4-(1H-pyrazol-4-yl)phenyl)-1-(3-methoxybenzyl)-8-(2-methoxyethyl)-1,3,8-triazaspiro[4.5]decan-2-one], the 50% inhibitory concentration (IC50) lay within 3 to 30 nM.
To `COc1cccc(CN2C(=O)N(c3ccc(-c4cn[nH]c4)cc3)CC23CCN(CC(N)=O)CC3)c1` [Example 169, 2-(3-(4-(1H-pyrazol-4-yl)phenyl)-1-(3-methoxybenzyl)-2-oxo-1,3,8-triazaspiro[4.5]decan-8-yl)acetamide] belongs less than 3 nM; to `CC(=O)N1CCC2(CC1)CN(c1ccc(-c3cn[nH]c3)cc1)C(=O)N2Cc1cccc(F)c1C` [Example 82, 3-(4-(1H-pyrazol-4-yl)phenyl)-8-acetyl-1-(3-fluoro-2-methylbenzyl)-1,3,8-triazaspiro[4.5]decan-2-one], 3 to 30 nM.
To `CC(=O)N1CCC2(CC1)CN(c1ccc(-c3cn[nH]c3)cc1)C(=O)N2CC1CCCCC1` [Example 79, 3-(4-(1H-pyrazol-4-yl)phenyl)-8-acetyl-1-(cyclohexylmethyl)-1,3,8-triazaspiro[4.5]decan-2-one] belongs 30 to 250 nM; to `O=C1N(c2ccc(-c3cn[nH]c3)cc2)CC2(CCOCC2)N1Cc1c(F)cccc1F` [Example 23, 3-(4-(1H-pyrazolo-4-yl)phenyl)-1-(2,6-difluorobenzyl)-8-oxa-1,3-diazaspiro[4.5]decan-2-one], 250 to 3000 nM; to `COc1cccc(NC2C(=O)N(c3ccc(-c4cn[nH]c4)cc3)CC23CCN(C(=O)CO)CC3)c1` (stereo not drawn) [Example 250, 2-(4-(1H-pyrazol-4-yl)phenyl)-8-(2-hydroxy-acetyl)-4-((3-methoxy-phenyl)amino)-2,8-diazaspiro [4.5]decan-3-one], 250 to 3000 nM.
`COc1cccc(CN2C(=O)N(c3ccc(-c4cn[nH]c4)cc3)CC23CCN(CC2CCC(F)(F)CC2)CC3)c1` [Example 231, 3-(4-(1H-pyrazol-4-yl)phenyl)-8-((4,4-difluorocyclohexyl)methyl)-1-(3-methoxybenzyl)-1,3,8-triazaspiro[4.5]decan-2-one] displayed a half-inhibitory concentration (IC50) of less than 3 nM.
With `COc1cccc(CN2C(=O)N(c3ccc(-c4cn[nH]c4)cn3)CC23CCN(C2COC2)CC3)c1` [Example 237, 3-(5-(1H-pyrazol-4-yl)pyridin-2-yl)-1-(3-methoxy-benzyl)-8-(oxetan-3-yl)-1,3,8-triazaspiro [4.5]decan-2-one] the figure was less than 3 nM.
With `COC(=O)N1CCC2(CC1)CN(c1ncc(-c3cn[nH]c3)c(OC)n1)C(=O)N2Cc1cccc(OC)c1` [Example 111, methyl 3-(4-methoxy-5-(1H-pyrazol-4-yl)pyrimidin-2-yl)-1-(3-methoxybenzyl)-2-oxo-1,3,8-triazaspiro[4.5]decane-8-carboxylate] the figure was 3 to 30 nM.
To `CCc1nc(N2CC3(CCN(C(=O)C(C)O)CC3)N(Cc3cc(F)cc(OC)c3)C2=O)ccc1-c1cn[nH]c1` (stereo not drawn) [Example 188, 3-(6-ethyl-5-(1H-pyrazol-4-yl)pyridin-2-yl)-1-(3-fluoro-5-methoxybenzyl)-8-(2-hydroxypropanoyl)-1,3,8-triazaspiro[4.5]decan-2-one] belongs less than 3 nM.
With `CCc1nc(N2CC3(CCN(C(=O)C4CCCO4)CC3)N(Cc3cccc(OC)c3)C2=O)ccc1-c1cn[nH]c1` (stereo not drawn) [Example 207, 3-(6-ethyl-5-(1H-pyrazol-4-yl)pyridin-2-yl)-1-(3-methoxybenzyl)-8-(tetrahydrofuran-2-carbonyl)-1,3,8-triazaspiro[4.5]decan-2-one], the IC50 was less than 3 nM.

(Values after patent US10787450B2 (BRISTOL-MYERS SQUIBB COMPANY, priority 2016, dated 2020).)
